Assay results reported in ChEMBL document CHEMBL1133530, “Classification of multidrug-resistance reversal agents using structure-based descriptors and linear discriminant analysis” (2000).

Species: Mus musculus
Test: Tested for the multidrug resistance reversal activity against P388 murine leukemia cell line, activity is expressed as RF(ED50 with no adriamycin (ADR)/ED50 with 200 nM ADR)
Type: functional

SMILES | RF
CCN(CC)CCOC1CCC2(C)C(=CCC3C4CCC(=O)C4(C)CCC32)C1 (stereo not drawn) | 60
COc1ccc(CCC2NCCc3cc(OC)c(OC)cc32)cc1 (stereo not drawn) | 100
O=C(OCCN1CCN(CCOC(=O)C(c2ccccc2)c2ccccc2)CC1)C(c1ccccc1)c1ccccc1 | 300
CCCCc1oc2ccccc2c1C(=O)c1cc(I)c(OCCN(CC)CC)c(I)c1 [AMIODARONE] | 5.6
COc1ccc(CCNCC(O)COc2cccc(C)c2)cc1OC (stereo not drawn) [BEVANTOLOL] | 50
NCCc1ccccc1 [PHENETHYLAMINE] | 1
COc1ccc(CCN(C)CCCC(C#N)(c2ccc(OC)c(OC)c2)C(C)C)cc1OC (stereo not drawn) [VERAPAMIL] | 100
OCCN1CCN(CC/C=C2/c3ccccc3Sc3ccc(Cl)cc32)CC1 [ZUCLOPENTHIXOL] | 15
